Literature values as cited in US20080182860A1, “Pyrimidine Compounds as Purine Receptor Antagonist” (VERNALIS (R&D) LTD., priority 2004, published 2008).

Tests used:
Parkinsonian patients = settings: 150 mg/day slow release oral

serum theophylline levels (Parkinsonian patients; after one week, 15 Parkinsonian patients) | SMILES | anticataleptic effects of a subthreshold dose of L-DOPA plus benserazide (adenosine A2A receptor; in vivo) | catalepsy induced by haloperidol and reserpine (adenosine A2A receptor; in vivo) | cataleptic responses induced by intracerebroventricular CGS 21680 (adenosine A2A receptor; oral administration) | mean objective disability scores (Parkinsonian patients; up to 12 weeks)
 | CCCn1c(=O)c2c(nc(/C=C/c3ccc(OC)c(OC)c3)n2C)n(CCC)c1=O [KF 17837, (E)-8-(3,4-dimethoxystyryl)-1,3-dipropyl-7-methylxanthine] | potentiated | reduced | significantly ameliorated | 
4.44 mg/L | Cn1c(=O)c2[nH]cnc2n(C)c1=O [Theophylline, 1,3-dimethylxanthine] |  |  |  | significant improvements
